Patent publication US10413520B2, “Oral pharmacological composition including 5-{4-(amino sulfonyl)phenyl}-2,2-dimethyl-4-(3-fluorophenyl)-3(2H)-furanone having crystalline structure with excellent stability” (CRYSTALGENOMICS, INC., priority 2014, dated 2019)
Where two headings read alike, the source gives them in different places. One block for each compound: values may come before it.

Experiments:
[1] = Solubility test in solvents, up to 200 vol (Table 1); format: physicochemical; conditions: organic solvent or mixture, thermodynamic from solid, about 5 mg compound, solvent named in the row (c1)
Description: Then, the solvents were evaporated at room temperature for drying and XRPD patterns of the obtained dried materials were confirmed.

[2] = Particle size analysis by laser diffraction; format: physicochemical; conditions: dry module, 2 bar
Experimental: The particle sizes of the crystalline form of Comparative Examples 1 and 2 and Example 39 were analyzed using a laser diffraction-based particle size analyzer (Mastersizer 2000®, Malvern). After each sample was fed into a dry module (Scirocco 2000®, Malvern) at a pressure of 2 bar, the 50% volume particle diameter (d(0.5)) and 90% volume particle diameter (d(0.9)) of the particles were measured.

[3] = Solubility test in 28 solvents at r.t. and 50° C. (Table 2)
Experimental: When dissolution was incomplete during the experiment, the solution was maturated by repeatedly heating to 50° C. and then cooling to room temperature 8 times for 24 hr in an incubation chamber. After maturation, the solvent was dried at room temperature.
During the experiment, the completely dissolved solution was stored under a cold condition (4° C.) for 24 hr to allow crystal formation, recovered and dried at room temperature. Then XRPD analysis was performed.

[4] = Dissolution rates of crystalline form with different particle sizes; format: physicochemical; conditions: 2 mg per hard capsule, 900 ml pH 1.2 and pH 6.8 solutions, 100 rpm, 37±0.5° C., 3 hr
Experimental: In this example, the dissolution rates of the crystalline form with different particle sizes were examined. The particles of Comparative Examples 1 and 2 and Example 39 were filled in different hard capsules (2 mg per capsule) and were then eluted in 900 ml of a pH 1.2 solution and 900 ml of a pH 6.8 solution at a revolution number of 100 rpm and a temperature of 37±0.5° C. for 3 hr. The eluted particles were analyzed under the same HPLC conditions as described in Test Example 1.

[5] = Temperature stability of crystalline form A in capsules; format: physicochemical; conditions: PTP, 60 ± 5% RH
Experimental: The retention time of the major peak, the amounts of related substances, and the compound content were analyzed by HPLC under the following conditions.
<HPLC Conditions for Analysis of Related Substances>
Column: Hypurity C18, 250×4.6 mm, […] or its equivalent column
Detector: UV absorption spectrometer (measured at 241 nm)
(§1) Column temperature: 30° C.
Mobile phase: A—acetonitrile, B—0.1% v/v trifluoroacetic acid (TFA) in water
<HPLC Conditions for Analysis of the Compound Content>
(§2) Detector: UV absorption spectrometer (measured at 325 nm)
(§3) Mobile phase: A—acetonitrile, B—water, A:B=60:40, v/v %
Diluent: water:acetonitrile=50:50, v/v %

[6] = Humidity stability of crystalline form A in capsules; format: physicochemical; conditions: PTP, 25 ± 2° C., 90 ± 5% RH
Experimental: (§4) The crystalline form A was filled in a hard capsule (2 mg per capsule) and stored under the severe humidity conditions shown in Table 10. Thereafter, the appearance of the crystalline form A, the retention time of the major peak, the amounts (%) of related substances, and the compound content were analyzed.

[7] = Light stability of crystalline form A in capsules; format: physicochemical; conditions: for Amounts of related substances (each) / Amounts of related substances (total) / Appearance / Content / Peak retention time confirmation: PTP, light stress (white and UV florescent lamp)
Experimental: as §4, with “light stress” for “severe humidity”, “11.” for “10.”

[8] = Room temperature storage of anhydrous form; format: physicochemical; conditions: stored at room temperature for a long period
Experimental: Then, about 18 g of the compound was dissolved in 200 mL of acetone. The completely dissolved solution was vacuum dried at 40° C. using a rotary evaporator (Buchi Rota Vapour R200). The compound thus obtained was a sponge-like solid. When the compound was stored at room temperature for a long period, the structure of the crystalline form A was gradually formed, and related substances were created due to hygroscopic property.

[9] = Related substance creation under stress conditions (HPLC); format: physicochemical; conditions: stress conditions 60±2° C. and 85±5% (RH), sealed glass vial; for Total related substance: after 4 week storage
Experimental: Each raw material was sealed in a glass vial and sampled at different elapsed time. The samples were evaluated by HPLC analysis. […] Based on the above results, the crystalline forms A and G were selected and used for the study for manufacturing an oral pharmacological composition.

[10] = Storage stability of crystalline forms (appearance, XRD, related substances); format: physicochemical; conditions: 25° C./97% RH and 40° C./75% RH, 7 days; for State of crystalline form (XRD): hard capsules; for Appearance and crystalline structures / Creation of related substances: uncapped glass vial
Experimental: Additionally, the crystalline forms of the compound of Formula 1 were evaluated for storage stability. The crystalline form A of Preparative […] conditions (25° C./97% RH) and accelerated storage conditions (40° C./75% RH) for 7 days. X-ray diffraction analysis was performed in accordance with the same method as described in Preparative Examples 5 and 6.

[11] = Dissolution rates of crystalline forms in hard capsules; format: physicochemical; conditions: 900 ml pH 1.2 solution, 50 and 100 rpm, 37±0.5° C., 2 hr
Experimental: In this example, the dissolution rates of the crystalline forms of the compound of Formula 1 were examined. Specifically, each of the crystalline form A of Preparative Example 5 and the crystalline form G of Preparative Example 6 was filled in hard capsules and was then eluted in 900 ml of a pH 1.2 solution at different revolution numbers of 50 and 100 rpm and a temperature of 37±0.5° C. for 2 hr. The eluted particles were analyzed under the following HPLC conditions:
Column: Hypurity C18, 250×4.6 mm, 5 μm or its equivalent column
as §2, §1, §3

[12] = Pharmacokinetic properties of crystalline forms after oral administration; format: in vivo; conditions: single oral dose, male SD rats; for AUC / Cmax / Tmax: about 5 mg in 10 mL 0.5% methylcellulose, 10 mL/Kg
Experimental: The pharmacokinetic properties of the different crystalline forms of the compound of Formula 1 were analyzed in vivo. About 5 mg of each of the crystalline form A of Preparative Example 5 and the crystalline form G of Preparative Example 6 was suspended in 10 mL of a 0.5% methylcellulose solution to produce a formulation for oral use. Then, 6 week old male SD rats (Orient Bio. Inc., Korea) were divided into two groups. About 3 mL (10 mL/Kg) of the oral formulation was once administered orally to each rat and blood samples were drawn from the rat at predetermined intervals of 0.167, 0.5, 1.0, 2.0, 4.0, 6.0, 8.0, and 24.0 hr. The blood samples were used to analyze the pharmacokinetic parameters of the crystalline form.
The pharmacokinetic parameters of the crystalline forms were analyzed using Waters Quattro premier XE 2795 Alliance HT (Waters) under the following conditions: flow rate=0.25 ml/min, column temperature=40° C., injection volume=7 μL, and mobile phase=A: 1 mM ammonium acetate & 0.1% acetic acid (35%), B: ACN (65%). Linearity was established with 8 different standard concentrations.
The oral formulations including the compound of Preparative Example 5 and the compound of Preparative Example 6, respectively, were administered to the different rats.

Particle size d(0.1) [2]: 5.15 μm | Particle size d(0.5), 50% volume particle diameter [2]: 32.17 μm | Particle size d(0.9), 90% volume particle diameter [2]: 83.54 μm
SMILES: CC1(C)OC(c2ccc(S(N)(=O)=O)cc2)=C(c2cccc(F)c2)C1=O [Comparative Example 2]

Dissolution in solvent volume up to 100 times, heated up to 50° C. ([3]; IPA, Toluene, TBME, Diethyl ether, Heptane, water): not dissolved | Dissolution in solvent volume 10 times the raw material ([3]; acetone, 2-butanone, THF, DMSO, Methylpyrrolidine, Dioxane, acetonitrile aqueous solution, NMP, 1-methoxy-IPA): dissolved | Dissolution in solvent volume 20 times to 40 times the raw material ([3]; ethyl acetate, acetonitrile, MIBK, DCM, Nitromethane): dissolved
SMILES: CC1(C)OC(c2ccc(S(N)(=O)=O)cc2)=C(c2cccc(F)c2)C1=O [compound of Formula 1]

Particle size d(0.1) [2]: 1.75 μm | Particle size d(0.5), 50% volume particle diameter [2]: 5.98 μm | Particle size d(0.9), 90% volume particle diameter [2]: 15.23 μm | Amounts of related substances (each) ([5]; 60 ± 2° C., 24 hr): 0.0%, | Amounts of related substances (total) ([5]; 60 ± 2° C., 24 hr): 0.0% | Appearance ([5]; 60 ± 2° C., 24 hr): Unchanged | Content ([5]; 60 ± 2° C., 24 hr): 103.0% | Peak retention time confirmation ([5]; 60 ± 2° C., 24 hr): The same | Amounts of related substances (each) ([5]; 80 ± 2° C., 24 hr): 0.0%, | Amounts of related substances (total) ([5]; 80 ± 2° C., 24 hr): 0.0% | Appearance ([5]; 80 ± 2° C., 24 hr): Unchanged | Content ([5]; 80 ± 2° C., 24 hr): 101.5% | Peak retention time confirmation ([5]; 80 ± 2° C., 24 hr): The same | Amounts of related substances (each) ([5]; 90 ± 2° C., 24 hr): 0.0%, | Amounts of related substances (total) ([5]; 90 ± 2° C., 24 hr): 0.0% | Appearance ([5]; 90 ± 2° C., 24 hr): Unchanged | Content ([5]; 90 ± 2° C., 24 hr): 101.8% | Peak retention time confirmation ([5]; 90 ± 2° C., 24 hr): The same | Amounts of related substances (each) ([5]; 90 ± 2° C., 72 hr): 0.1%, | Amounts of related substances (total) ([5]; 90 ± 2° C., 72 hr): 0.1% | Appearance ([5]; 90 ± 2° C., 72 hr): Unchanged | Content ([5]; 90 ± 2° C., 72 hr): 101.1% | Peak retention time confirmation ([5]; 90 ± 2° C., 72 hr): The same | Amounts of related substances (each) ([6]; 1 week): 0.1% | Amounts of related substances (total) ([6]; 1 week): 0.1%, | Appearance ([6]; 1 week): Unchanged | Content ([6]; 1 week): 103.1% | Peak retention time confirmation ([6]; 1 week): The same | Amounts of related substances (each) ([6]; 2 weeks): 0.1%, 0.1% | Amounts of related substances (total) ([6]; 2 weeks): 0.1%, 0.1% | Appearance ([6]; 2 weeks): Unchanged | Content ([6]; 2 weeks): 103.1% | Peak retention time confirmation ([6]; 2 weeks): The same | Amounts of related substances (each) ([6]; 4 weeks): 0.1%, | Amounts of related substances (total) ([6]; 4 weeks): 0.1% | Appearance ([6]; 4 weeks): Unchanged | Content ([6]; 4 weeks): 101.2% | Peak retention time confirmation ([6]; 4 weeks): The same | Amounts of related substances (each) ([7]; 1 week): 1.7% | Amounts of related substances (total) ([7]; 1 week): 3.0% | Appearance ([7]; 1 week): Unchanged | Content ([7]; 1 week): 103.4% | Peak retention time confirmation ([7]; 1 week): The same | Amounts of related substances (each) ([7]; 2 weeks): 2.1% | Amounts of related substances (total) ([7]; 2 weeks): 3.7% | Appearance ([7]; 2 weeks): Unchanged | Content ([7]; 2 weeks): 103.1% | Peak retention time confirmation ([7]; 2 weeks): The same | Amounts of related substances (each) ([7]; 4 weeks): 2.3% | Amounts of related substances (total) ([7]; 4 weeks): 4.1% | Appearance ([7]; 4 weeks): Unchanged | Content ([7]; 4 weeks): 99.1% | Peak retention time confirmation ([7]; 4 weeks): The same
SMILES: CC1(C)OC(c2ccc(S(N)(=O)=O)cc2)=C(c2cccc(F)c2)C1=O [Example 39]
Dissolution rate [4]: higher dissolution rates than the particles of Comparative Examples 1 and 2

Level of total related substance over time [9]: rapidly increased
SMILES: CC1(C)OC(c2ccc(S(N)(=O)=O)cc2)=C(c2cccc(F)c2)C1=O [crystalline form B]

Total related substance [9]: about 0.1% | State of crystalline form (XRD) [10]: maintained stable | Appearance and crystalline structures [10]: remained unchanged | Creation of related substances [10]: rarely observed | AUC ([12]; male, SD, rat, blood, po, 5 mg, read-out: AUC): 2320 ng·h/mL | Cmax ([12]; male, SD, rat, blood, po, 5 mg, read-out: Cmax): 751 ng/mL | Tmax ([12]; male, SD, rat, blood, po, 5 mg, read-out: Tmax): 30 min | Time until related substances exceeded the criteria ([7]; light stress storage conditions): ≤ 7 days
SMILES: CC1(C)OC(c2ccc(S(N)(=O)=O)cc2)=C(c2cccc(F)c2)C1=O [Preparative Example 5]
Dissolution rate [11]: higher dissolution rates than the crystalline form G | In vivo dissolution rates (blood levels over time) [12]: higher in vivo dissolution rates than the crystalline form G of Preparative Example 6

Total related substance [9]: about 0.1% | State of crystalline form (XRD) [10]: maintained stable | Appearance and crystalline structures [10]: remained unchanged | Creation of related substances [10]: rarely observed | AUC [12]: 2416.835 ng·h/mL | Cmax [12]: 513.614 ng/mL | Tmax [12]: 60 min
SMILES: CC1(C)OC(c2ccc(S(N)(=O)=O)cc2)=C(c2cccc(F)c2)C1=O [Preparative Example 6]

The next lines start with the compound.

SMILES: CC1(C)OC(c2ccc(S(N)(=O)=O)cc2)=C(c2cccc(F)c2)C1=O [Example 5]
solubility ([1]; read-out: Solubility at 200 vol (1000 uL)): < 5000 µg/mL

SMILES: CC1(C)OC(c2ccc(S(N)(=O)=O)cc2)=C(c2cccc(F)c2)C1=O [Comparative Example 1]
Particle size d(0.1) [2]: 40.55 μm | Particle size d(0.5), 50% volume particle diameter [2]: 136.49 μm | Particle size d(0.9), 90% volume particle diameter [2]: 527.04 μm

SMILES: CC1(C)OC(c2ccc(S(N)(=O)=O)cc2)=C(c2cccc(F)c2)C1=O [Example 4]
solubility ([1]; read-out: Solubility at 100 vol (500 uL)): > 10000 µg/mL

SMILES: CC1(C)OC(c2ccc(S(N)(=O)=O)cc2)=C(c2cccc(F)c2)C1=O [Preparation Example 2]
Physicochemical stability [8]: physicochemically unstable
